The assay has as its target T1, RPS6KA1 (RSK1) (Homo sapiens, UniProt Q15418).
T1 construct: purchased Thermo Fisher Scientific (Life Technologies) SelectScreen
Put plainly: SelectScreen Z'LYTE. Type of assay: biochemical. Put shortly: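 Percent values come from Thermo SelectScreen profiling of NU5455, combining activity and binding assays. CSF1R was run in Z'LYTE format at Km app ATP, and CAMK1 in Adapta format with ATP listed at 10.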

The values below come from publication PMC6934184, “Selective DNA-PKcs inhibition extends the therapeutic index of localized radiotherapy and chemotherapy” (The Journal of Clinical Investigation, 2019).

T1 sequence (Q15418 whole entry): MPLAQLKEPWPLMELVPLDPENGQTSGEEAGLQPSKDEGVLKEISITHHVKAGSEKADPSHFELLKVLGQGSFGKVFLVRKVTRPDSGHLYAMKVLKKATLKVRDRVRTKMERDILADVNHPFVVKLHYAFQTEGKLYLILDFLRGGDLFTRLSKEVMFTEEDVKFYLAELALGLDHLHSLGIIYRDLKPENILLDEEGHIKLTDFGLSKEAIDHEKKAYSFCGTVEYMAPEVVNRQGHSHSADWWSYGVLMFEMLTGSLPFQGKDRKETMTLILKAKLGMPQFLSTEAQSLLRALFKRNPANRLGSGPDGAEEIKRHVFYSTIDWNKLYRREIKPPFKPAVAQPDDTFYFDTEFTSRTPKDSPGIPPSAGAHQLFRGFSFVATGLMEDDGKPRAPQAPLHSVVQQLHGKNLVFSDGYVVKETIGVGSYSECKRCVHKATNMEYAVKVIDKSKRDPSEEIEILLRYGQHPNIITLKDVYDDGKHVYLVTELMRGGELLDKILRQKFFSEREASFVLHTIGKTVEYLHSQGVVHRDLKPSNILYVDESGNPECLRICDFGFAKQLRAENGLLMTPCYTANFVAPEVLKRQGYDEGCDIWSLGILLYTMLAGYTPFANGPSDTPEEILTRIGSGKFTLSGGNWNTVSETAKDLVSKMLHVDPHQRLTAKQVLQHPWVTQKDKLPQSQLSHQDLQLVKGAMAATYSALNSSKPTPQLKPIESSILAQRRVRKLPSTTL

Broadly, the inhibition is the relative decrease from the control value, in per cent. Read a high inhibition as strong suppression. The compound `CN(C(=O)CN1CCOCC1)c1ccc2sc3c(-c4cccc5c(=O)cc(N6CC7CCC(C6)O7)oc45)cccc3c2c1` [NU5455] returned an inhibition at 1 µM of 5.7%.
